According to patent US20220183287A1, “METHODS FOR KILLING PESTS” (The United States of America, as represented by the …, priority 2020, published 2022):
Like-named read-outs stand apart in the source and are kept apart here. Marks after values point to notes of the source that are not given here.

Experiments:
[1] = system: M. incognita second-stage juveniles; assay: Microwell assay: previously hatched J2 immersed in compounds, activity and viability; details: for mortality at 0.1 %: read-out: nonviable (killed) J2
M. incognita eggs = assay: Microwell assay: eggs immersed in compounds, hatch and activity of hatched J2; format: in vivo, Meloidogyne incognita; details: 0.1%; for % Active Day 2 / % Active Day 5 / % Active Day 7: J2 hatched from immersed eggs; for Hatch Day 2 / Hatch Day 5 / Hatch Day 7: hatched J2 per well, about 35 eggs per well
Experimental: (§1) All chemicals were used without further purification.
(§2) These are reported as 0.1% herein.
(§3) The nematodes were then incubated at 26° C. […] Two trials were conducted for each assay.
(§4) The assumptions of the model were checked.

Heterodera glycines eggs = assay: as above; format: in vivo; details: for % Active Day 2 / % Active Day 5 / % Active Day 7: J2 hatched from immersed eggs; for inactive J2 that hatched from the eggs: by Day 7; for Hatch Day 2 / Hatch Day 5 / Hatch Day 7: hatched J2 per well, about 35 eggs per well; for pest or weed control at 0.1 %: Heterodera glycines, 168 h, read-out: egg hatch suppression compared with the Tween control
Experimental: as §1, §2, §3, §4

M. incognita juveniles = details: MB isolated from Buddleja crispa; laboratory assays; cited from earlier work
[2] = 0.1%, previously hatched J2 in aqueous solution
[3] = Meloidogyne incognita, 72 h, read-out: % Viable Day 3 rinsed

SMILES	% Active Day 1 [1, 2]	% Active Day 2 [1, 2]	viability at 0.1 % [1, 3]	mortality at 0.1 % ([1]; Meloidogyne incognita, 72 h)	% Active Day 2 (M. incognita eggs)	% Active Day 5 (M. incognita eggs)	% Active Day 7 (M. incognita eggs)	Hatch Day 2 (M. incognita eggs)	Hatch Day 5 (M. incognita eggs)	Hatch Day 7 (M. incognita eggs)	% Active Day 2 (Heterodera glycines eggs; 0.1%)	% Active Day 5 (Heterodera glycines eggs; 0.1%)	% Active Day 7 (Heterodera glycines eggs; 0.1%)	inactive J2 that hatched from the eggs (Heterodera glycines eggs; 0.1%)	Hatch Day 2 (Heterodera glycines eggs; 0.1%)	Hatch Day 5 (Heterodera glycines eggs; 0.1%)	Hatch Day 7 (Heterodera glycines eggs; 0.1%)	pest or weed control at 0.1 % (Heterodera glycines eggs; 0.1%, Day 7)	further results
CCOC(=O)c1ccccc1 [EB, Ethyl benzoate]	0 ^f %	0 ^d %	0%	100%	0 ^c %	0 ^e %	0 ^c %	2.4 ^cd	3.9 ^cde	4.3 ^de	0 ^e %	0 ^f %	0 ^d %	all J2 that hatched from the eggs were inactive	6.7 ^bcd	6.8 ^bcd	6.6 ^bcd	–	% Active Day 2 ([1]; 0.025% final concentration): 42.9 ^bc %; viability at 0.025 % [1, 3]: 80.2%
COC(=O)c1cccc(C)c1 [M3MB, Methyl 3-methylbenzoate]	0 ^f %	0 ^d %	0%	100%	0 ^c %	0 ^e %	0 ^c %	1.9 ^cd	2.7 ^cde	2.9 ^de	0 ^e %	0 ^f %	0 ^d %	all J2 that hatched from the eggs were inactive	5.2 ^cd	5.4 ^cd	5.1 ^cd	64 to 80%	% Active Day 2 ([1]; 0.015% final concentration): 66.8 ^ab %; viability at 0.015 % [1, 3]: 63.7%
COC(=O)c1ccccc1 [MB, Methyl benzoate]	0 ^f %	0 ^d %	0%	100%	0 ^c %	0 ^e %	0 ^c %	2.2 ^cd	3.8 ^cde	4.7 ^de	0 ^e %	0 ^f %	0 ^d %	all J2 that hatched from the eggs were inactive	5.4 ^cd	5.6 ^cd	5.5 ^cd	–	% Active Day 2 ([1]; 0.0095% final concentration): 22.4 ^d %; viability at 0.0095 % [1, 3]: 75.6%; pest or weed control at 0.1 % (Heterodera glycines eggs): 64 to 80%; nematocidal activity (M. incognita juveniles): demonstrated nematocidal activity
C=COC(=O)c1ccccc1 [VB, Vinyl benzoate]	0 ^f %	0 ^d %	1%	100%	0 ^c %	0 ^e %	0 ^c %	2.7 ^cd	2.9 ^cde	2.8 ^de	0 ^e %	0 ^f %	1 ^d %	all J2 that hatched from the eggs were inactive	3.5 ^d	3.5 ^d	3.4 ^d	80%	% Active Day 2 ([1]; 0.008% final concentration, Trial 2 only): 22.4 ^cd %; viability at 0.0008 % [1, 3]: 89.6%; viability at 0.008 % [1, 3]: 43.1%; % Viable Day 3 rinsed ([1]; in vivo): did not result in a significant reduction; hatch suppression compared to the Tween control (Heterodera glycines eggs; 0.1%, Day 2): 76%
